Results: PubChem BioAssay AID1645866 (Buhrlage Lab, Dana-Farber Cancer Institute and Novartis …, 2021)
Active and inactive are the calls of the source.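 How the source made its calls: active means in confirmatory dose-response testing, peak deubiquitinase inhibition of 30% or more; inactive means the rest.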

Target: Ubiquitin carboxyl-terminal hydrolase 28 (Homo sapiens) (UniProt Q96RU2)
Assay: Concentration-response biochemical assay confirming initial hits as inhibitors of ubiquitin-specific protease 28 (AID 1645866)
Details: purified USP28, ubiquitin-rhodamine fluorescence, 30 min

Chain of Ubiquitin carboxyl-terminal hydrolase 28 (Homo sapiens) (Q96RU2 whole entry, looked up): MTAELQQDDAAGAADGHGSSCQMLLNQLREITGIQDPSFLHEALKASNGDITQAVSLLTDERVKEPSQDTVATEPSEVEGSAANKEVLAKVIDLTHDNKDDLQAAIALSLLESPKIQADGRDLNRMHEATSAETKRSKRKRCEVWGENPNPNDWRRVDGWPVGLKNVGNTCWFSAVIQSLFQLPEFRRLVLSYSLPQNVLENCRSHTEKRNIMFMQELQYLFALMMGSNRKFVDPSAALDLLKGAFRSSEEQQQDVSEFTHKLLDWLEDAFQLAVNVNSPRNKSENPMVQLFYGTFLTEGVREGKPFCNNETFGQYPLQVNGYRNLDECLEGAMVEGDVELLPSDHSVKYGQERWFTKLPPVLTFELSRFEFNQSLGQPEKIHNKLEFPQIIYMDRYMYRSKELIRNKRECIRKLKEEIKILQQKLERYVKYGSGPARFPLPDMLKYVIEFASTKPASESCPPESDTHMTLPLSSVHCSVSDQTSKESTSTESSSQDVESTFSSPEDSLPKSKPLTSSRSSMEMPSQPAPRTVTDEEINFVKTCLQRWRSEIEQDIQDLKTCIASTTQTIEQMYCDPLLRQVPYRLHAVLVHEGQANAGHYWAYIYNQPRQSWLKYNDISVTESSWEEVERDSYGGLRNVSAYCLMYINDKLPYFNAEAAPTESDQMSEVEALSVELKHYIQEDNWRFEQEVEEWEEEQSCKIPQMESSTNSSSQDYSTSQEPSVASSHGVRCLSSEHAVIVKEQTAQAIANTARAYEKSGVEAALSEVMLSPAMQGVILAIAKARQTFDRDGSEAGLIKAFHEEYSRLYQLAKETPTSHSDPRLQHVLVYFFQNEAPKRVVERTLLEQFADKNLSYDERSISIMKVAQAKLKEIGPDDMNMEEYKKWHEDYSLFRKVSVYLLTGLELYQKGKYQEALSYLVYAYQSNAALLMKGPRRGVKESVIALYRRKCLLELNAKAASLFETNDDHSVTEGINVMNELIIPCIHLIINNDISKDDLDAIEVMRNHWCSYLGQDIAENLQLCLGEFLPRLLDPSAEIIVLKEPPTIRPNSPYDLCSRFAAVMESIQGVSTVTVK

Row | Compound | IC50
1 | CC1CC[C@]2(NC1)O[C@H]1C[C@H]3[C@@H]4CC[C@H]5C[C@@H](O[C@@H]6O[C@H](CO)[C@H](O[C@@H]7O[C@H](CO)[C@@H](O)[C@H](O[C@@H]8OC[C@@H](O)[C@H](O)[C@H]8O)[C@H]7O[C@@H]7O[C@H](CO)[C@@H](O)[C@H](O)[C@H]7O)[C@H](O)[C@H]6O)CC[C@]5(C)[C@H]4CC[C@]3(C)[C@H]1[C@@H]2C (some centres undefined) | 30.5 µM
2 | O=C(Cc1nnc2c(-c3nc(C4CC4)no3)cccn12)Nc1ccccc1 | 16.5 µM
3 | CC12c3ccc4c(c3C(=O)c3occ(c31)C(=O)CC2O)CCC4=O (centres undefined) | > 50 µM (inactive)
4 | COC(=O)c1cc2c(ccn2C)n1CC(=O)NC1CCCC1 | > 50 µM (inactive)
5 | COc1ccccc1NC(=O)Nc1ccc(NC(=O)c2ccccc2O)cc1 | 37.4 µM
6 | O=C(c1ccnn1-c1ccc2ccc(-c3ccncc3)cn12)N1CCCC1 | > 50 µM (inactive)
7 | Cc1ncc(CO)c2c1Oc1nc(-c3cccc(Cl)c3)nc(SCC(=O)N3CCCCC3)c1C2 | > 50 µM (inactive)
8 | COc1ccccc1-c1nc2c3c(C)c(C)n(-c4ccc(Br)cn4)c3ncn2n1 | 2.07 µM
9 | CC(C)Cc1nc2oc3c(N(C)CCO)ncnc3c2c2c1CCC2 | > 50 µM (inactive)
10 | O=C(Nc1cc(F)c2nc(N3CCOCC3)ccc2c1)c1ccc(Br)o1 | 37.5 µM
11 | COc1ccc(NC(=O)c2sc(N3CCOCC3)nc2-c2ccccc2)c(OC)c1 | 17 µM
12 | Cc1ccc(C2c3c(-c4ccccc4O)n[nH]c3C(=O)N2Cc2ccco2)cc1 (centres undefined) | 20 µM
13 | COc1ccccc1CC(=O)Nc1nc2ccccc2[nH]1 | 37.1 µM
14 | Cc1ccc2c(c1)N=C(c1ccc([N+](=O)[O-])cc1)CO2 | > 50 µM (inactive)
15 | O=C(Cn1cnc(-c2noc(-c3ccncc3)n2)c1)N1CCN(c2ccccc2F)CC1 | > 50 µM (inactive)
16 | COc1cccc2c1OCC(NS(=O)(=O)c1cc(C)ccc1C)C2 (centres undefined) | > 50 µM (inactive)
17 | CCOC(=O)C1C(c2ccc(Br)cc2)C2(C(=O)c3ccccc3C2=O)C2C=Cc3ccccc3N12 (centres undefined) | > 50 µM (inactive)
18 | Cc1oc(C2CC2)cc1C(=O)N1CCC2(CC1)CC1(CO2)Nc2ccccc2-n2cccc21 (centres undefined) | > 50 µM (inactive)
19 | CN(C)c1cccc(C(=O)Nc2cc(-c3cccnc3)no2)c1 | 13.5 µM
20 | CCC(=O)N1c2ccccc2NC2=C(C(=O)CC(c3ccccc3OCc3ccccc3)C2)C1c1ccccc1 (centres undefined) | 4.53 µM
21 | O=C(NCc1ccc2c(c1)OCO2)c1ccc(C2SCC(=O)N2Cc2ccco2)cc1 (centres undefined) | > 50 µM (inactive)
22 | CC1=CC(=O)C(C2=C(O)C(=O)C(C)=CC2=O)=C(O)C1=O | 20.3 µM
23 | CCn1cc(-c2cc(C(=O)Nc3cnn(Cc4cccc(F)c4)c3)c3ccccc3n2)cn1 | 42.1 µM
24 | CN(CCCNC(=O)c1cccc2c1SCCC2=O)c1ccccc1 | > 50 µM (inactive)
25 | CC(=O)c1oc2nc3c(c(-c4ccc(Cl)cc4)c2c1N)CCc1ccccc1-3 | > 50 µM (inactive)

Row | Compound | IC50
26 | Cc1ccc2cc(CNc3ccccc3)c(=O)n(CC(=O)Nc3ccccc3C)c2c1 | 18.6 µM
27 | CCCc1nc2sc3c(NCCCN4CCOCC4)ncnc3c2c2c1CCC2 | 0.743 µM
28 | COc1ccc(NC(=O)c2ccccc2OCC(=O)Nc2ccccc2C(F)(F)F)c(C)c1 | 23.4 µM
29 | CN1c2ccccc2CN(CC(N)=O)CC1Cc1ccccc1 (centres undefined) | > 50 µM (inactive)
30 | COCCNC(=O)c1cc(-c2cn(-c3ccccn3)c(C)n2)n2ccccc12 | > 50 µM (inactive)
31 | O=C1c2c(O)c(Cl)cc3c2[C@@]2(Oc4cc(Cl)c(O)c5c4[C@]3(O2)[C@@H]2O[C@@H]2C5=O)[C@@H]2O[C@H]12 | 0.495 µM
32 | Cc1sc(-c2cccnc2)nc1OC(=O)c1ccc(Cl)c(Cl)c1 | > 50 µM (inactive)
33 | O=C(Nc1ncc2c(n1)-c1ccccc1CC2)C1CC1 | 17.6 µM
34 | O=C(CN1CCCc2ccccc21)Nc1ccc(N2CCOCC2)cc1 | > 50 µM (inactive)
35 | Cc1cccc(C(=O)Nc2cccc(SC(C(=O)Nc3ccc(Cl)c(C(=O)O)c3)c3ccccc3)c2)c1 (centres undefined) | 15.3 µM
36 | COc1ccc2nc(-c3ccc(NC(=O)c4cccc(OC)c4OC)cc3)cn2n1 | 2.43 µM
37 | Cc1cccc(NC(=O)CN2C(=O)CC(c3ccccc3)S(=O)(=O)c3ccccc32)c1C (centres undefined) | 21.6 µM
38 | CCC(=O)Nc1ccc(-c2nc(Cn3cc(C)cn3)c(C)o2)cc1 | 3.7 µM
39 | O=C(Nc1cccc(-c2nc3ccccc3[nH]2)c1)c1cc2ccccc2oc1=O | 2.17 µM
40 | CC1CC(=O)Nc2ccccc2N1S(=O)(=O)c1ccc(C#N)cc1 (centres undefined) | 33.1 µM
41 | Cc1ccc(-c2nc(Cn3cnc4ccccc4c3=O)cs2)cc1 | 4.97 µM
42 | COc1ccc(-n2c(=O)c(CCC(=O)O)nc3ccccc32)cc1 | > 50 µM (inactive)
43 | Cc1cccc(NC(=O)c2nn(C)c3ccccc3c2=O)c1 | 16.5 µM
44 | COc1ccc(C)cc1NC(=O)COc1ccc2c(c1)OCO2 | 49.6 µM
45 | Fc1ccc(CN2CCc3nc4cccnc4cc3C2)cc1 | > 50 µM (inactive)
46 | O=C(Cc1noc2ccccc12)NCC(=O)Nc1ccc(Cl)cc1 | 18 µM
47 | CC(C)(C)C(=O)Nc1ccc(C(=O)Nc2cccc(-c3nnc(-c4ccccc4)o3)c2)cc1 | 4.78 µM
48 | Cc1ccc(NC2=NC(c3ccco3)n3c(nc(C)cc3=O)N2)c(C)c1 (centres undefined) | 8.38 µM
49 | COc1ccccc1-c1nc2c3c(C)c(C)n(Cc4cccnc4)c3ncn2n1 | 20.4 µM
50 | COC(=O)COc1ccc(/C=N/NC(=O)c2ccc(CN3CCc4ccccc4C3)cc2)cc1 | 11.1 µM

Row | Compound | IC50
51 | Cc1ccc(N=Cc2sc(O)c3ccccc23)c(C)c1 | > 50 µM (inactive)
52 | CCCC(=O)Nc1nc2ccc(CCC(=O)NCc3ccc(F)cc3)cc2s1 | 25.8 µM
53 | c1ccc2c(c1)CCc1c-2nc2ccccc2c1N1CCOCC1 | > 50 µM (inactive)
54 | Cc1ccc2nc(-c3cccc(-c4nc5ccc(C)cc5[nH]4)n3)[nH]c2c1 | > 50 µM (inactive)
55 | Cc1cc(C(=O)N2CCN(C3CCN(Cc4ccc(Cl)o4)CC3)C(=O)C2)c(C)o1 | > 50 µM (inactive)
56 | Cc1cccc(N2C(=O)/C(=C\c3ccc4c(c3)OCCO4)c3ccccc3C2=O)c1 | 19.2 µM
57 | Cc1cccc(NC(=O)Cn2cnc(-c3noc(-c4ccccc4)n3)c2)c1C | 1.31 µM
58 | COc1ccc2nc(Nc3ncc4c(n3)CCCC4=O)nc(C)c2c1 | > 5 µM (inactive)
59 | O=C1N(Cc2ccc(F)cc2)CCN1c1ccc(C(F)(F)F)cn1 | 4.67 µM
60 | CCc1ccc(NC(=O)CN=C2NS(=O)(=O)C(c3ccc(CC)cc3)=C2C)cc1 | 21.7 µM
61 | Cc1ccccc1-c1nnc(-c2ccc(C(=O)NCc3ccccc3F)cc2)o1 | 12.6 µM
62 | COc1ccc(OC)c(C2CC(=O)Nc3n[nH]c(-c4ccccc4)c32)c1 (centres undefined) | 28.5 µM
63 | Cc1c(-c2ccccc2)oc2c(C(=O)OCC(=O)Nc3ccccc3F)cccc2c1=O | > 50 µM (inactive)
64 | O=C(NCc1ccccc1)Nc1cccc2ccccc12 | 29.3 µM
65 | O=C(Nc1cccc(Br)c1)c1cc(-c2cccnc2)n[nH]1 | 2.15 µM
66 | Cc1cc(C)c2sc(N(CCCn3ccnc3)C(=O)Cc3ccccc3)nc2c1 | 17.2 µM
67 | CCCC(=O)N1CCC2(CC1)Nc1ccccc1NC2=O | > 50 µM (inactive)
68 | Cc1nc2ccccn2c1C1(O)C(=O)Nc2c(Cl)cc(Cl)cc21 (centres undefined) | > 50 µM (inactive)
69 | COc1ccc(CCNC(=O)[C@H](CCSC)NC(=O)N2CCn3c2nc2ccccc23)cc1OC | > 50 µM (inactive)
70 | COc1ccc(-c2cc(C(=O)NC3CCCCCC3)[nH]n2)cc1S(=O)(=O)N(C)C | 23.6 µM
71 | C/C1=C/CC(O)/C=C/C(C)C(O)C(C)/C=C(\C)C(=O)c2c(O)c(C)cc3c2C(=O)C(Cl)=C(NC(=O)\C=C/C=C/C=C\C(C)C(O)CC1=O)C3=O (centres undefined) | 31.3 µM
72 | O=C(COc1ncnc2ccccc12)Nc1ccc2c(c1)OC1(CCCC1)O2 | 24 µM
73 | O=C(CCCCn1c(=O)c2ccccc2n(CC(=O)Nc2ccc(F)c(Cl)c2)c1=O)NCc1ccco1 | > 50 µM (inactive)
74 | Cc1ccc(S(=O)(=O)N2CCCCC2)cc1NC(=O)Cc1cccc(F)c1 | 5.05 µM
75 | Cc1ccc(-c2ncc(C(=O)NCc3cccc(C)c3)c(-c3ccncc3)n2)cc1 | > 50 µM (inactive)

Row | Compound | IC50
76 | CCCc1cc(=O)oc2cc(OCC(=O)NCc3ccc(OC)cc3)ccc12 | 16.6 µM
77 | Cc1cc(C(=O)N2CCOCC2)c(C)n1-c1ccc(O)cc1 | 41.7 µM
78 | Cc1c(-c2nn3c(-c4ccco4)nnc3s2)cccc1[N+](=O)[O-] | 2.49 µM
79 | Cc1noc(-c2ccc(N3CCCC(C(=O)NCc4ccc(F)cc4)C3)nc2)n1 (centres undefined) | 20.3 µM
80 | O=C(Nc1ccc2c(c1)OCCO2)Nc1ccc2nc3n(c(=O)c2c1)CCCC3 | 15.1 µM
81 | CC(C)(C)c1ccc(C(=O)Nc2ccc(Cn3cncn3)cc2)cc1 | 28 µM
82 | Oc1sc(C=Nc2cc(Cl)ccc2Cl)c2ccccc12 | 2.98 µM
83 | CCc1ccc(-n2c(=O)c3ccccc3n(CC(=O)NCCC3=CCCCC3)c2=O)cc1 | 14.5 µM
84 | COc1ccc(S(=O)(=O)N2CCN3Cc4ccccc4N(C)CC3C2)cc1 (centres undefined) | > 50 µM (inactive)
85 | COc1ccc(C2SCC(=O)Nc3c2c(=O)[nH]n3C2CCCCC2)cc1 (centres undefined) | 24.6 µM
86 | Cc1cnc(CN2CCCC(c3ccc4cn[nH]c4n3)C2)cn1 (centres undefined) | > 50 µM (inactive)
87 | Cc1c(-c2ccc(C#N)cc2)oc2ccc(Br)cc2c1=O | 1.8 µM
88 | O=C(Cn1c(-c2ccccc2)ncc(C(=O)NC2CC2)c1=O)Nc1ccccc1 | 14.2 µM
89 | O=c1[nH]c(-c2ccccn2)nc2c1CCN(Cc1cnn(-c3ccccc3)c1)C2 | > 50 µM (inactive)
90 | CCOc1ccc2c(c1)c(=O)c(C(=O)c1ccccc1)cn2CC(=O)Nc1ccccc1 | 9.83 µM
91 | O=C(CCc1nnc2n(Cc3ccccc3Cl)c(=O)c3ccccc3n12)NCc1ccccn1 | 23.4 µM
92 | O=C(Cn1cc(C(=O)C2CC2)c2ccccc21)NCc1ccc2c(c1)OCO2 | 24.9 µM
93 | Cc1noc(NS(=O)(=O)c2ccc(NC(=O)CSc3ccc4ccccc4c3)cc2)c1C | > 50 µM (inactive)
94 | CN1C(=O)COc2ccc(NC(=O)c3cc(-c4ccccc4)on3)cc21 | > 50 µM (inactive)
95 | O=C(CCSc1ccc(Cl)cc1)c1cccs1 | 19.4 µM
96 | O=C(Cn1nc2c3c4c(sc3ncn2c1=O)CCCCC4)Nc1ccc(Cl)cc1F | 1.83 µM
97 | Cc1cc(NC(=O)Cn2c(=O)n(CCCCC(=O)NCc3ccco3)c(=O)c3ccccc32)ccc1Br | 2.36 µM
98 | O=C(CNS(=O)(=O)c1ccc(F)cc1)N1CCCC(c2nnc3ccccn23)C1 (centres undefined) | 24.4 µM
99 | Cc1cc(N2CCOCC2)nc2ccc(NC(=O)CCC(=O)Nc3ccc(F)cc3)cc12 | 19.7 µM
